Data taken from patent publication US20230065158A1, “OXABICYCLOHEPTANES FOR TREATMENT OF SMALL CELL LUNG CANCER” (Lixte Biotechnology, Inc., priority 2021, published 2023).
Read-outs that look alike come from different tables or passages of the source.

Columns and labels:
[1] = molecular target: protein phosphatase 2A (PP2A) (Homo sapiens, UniProt P67775); experiment: Inhibition of PP2A versus PP1; format: biochemical; conditions: PP2A vs PP1
H446 cells = experiment: Cell Counting Kit-8 cytotoxicity, H446
Description: (§1) To determine specific cytotoxicity, we used Cell Counting Kit-8 (Dojindo Molecular Technologies, Rockville, Md.) as previously described (50).

H524 cells = experiment: Seahorse XF Real-Time ATP rate assay, H524; format: cell-based; conditions: LB100 2.5 μM, carboplatin 4 μM
Description: FIGS. 6A-6J depict ATP production rate in SCLC cells. FIG. 6A: H524 cells were treated with LB100 (2.5 μM), carboplatin (4 μM), or a combination, and ATP production rate was measured using the Agilent Seahorse XF Real Time ATP rate assay. mitoATP (mitochondrial) and glycoATP (glycolityc) rates were evaluated in H524 cells without and with drug treatments. […] FIG. 6B: Energetic map of H524 cells. After LB-100 and drug combination, cells became less glycolytic. FIGS. 6C-6E: The Agilent Seahorse XF pH sensor probe measures changes in the concentration of free protons, which corresponds to Extracellular Acidification Rate (ECAR). […] ATP level in cells was measured using the Agilent Seahorse XF Real Time ATP rate assay. […]
To elucidate the effect of the drugs on the glycolytic metabolism of H524 cells, we analyzed the proton efflux rate (PER). PER is calculated by subtracting acidification produced from mitochondrial CO2 production (Mitochondrial-derived CO2 can partially hydrate in the extracellular medium, resulting in additional extracellular acidification beyond that contributed by glycolysis) from total acidification or protons efflux (from both glycolysis and mitochondrial) into the extra cellular medium. […] To confirm that LB100 also affected glycolytic pathway in LB100-resistant cells, we measured PER in these cells. […]

H146 cells = experiment: Cell Counting Kit-8 cytotoxicity, H146
Description: as §1

H69 cells = experiment: Transendothelial extravasation assay through HUVEC monolayer, H69; format: cell-based; conditions: after 20 h of drug treatment
Description: FIGS. 3A-3H depict SCLC cell invasion through HUVEC monolayer. FIGS. 3A-3D: Graphical representation of H524/H69 cell ability to disrupt a confluent HUVEC monolayer using an electrical substrate-impedance sensing system. Arrows indicate time point when cells were added. Inserts show mean values and SD for each group after 20 h of drug treatment. After treatment, cell viability was counted using an Auto T4 Cell Counter (Nexcelom Cellometer). […] Whole cell Pt accumulation. Graphical representation of LB-100 effect on platinum uptake by SCLC cells. Cells were pretreated with LB-100 (H524—5 μM; H69—20 μM) overnight, then treated with carboplatin for one or four hours (H524—10 μM; H69—30 μM). Whole cell pellet was used for platinum (Pt) measurement. Values are normalized to total protein concentration. FIGS. 3E and 3F: Panels show mean values and SD of Pt accumulation for each group. […] Effect of LB-100 on PP2A expression and apoptosis regulatory proteins in H524 and H69 cells. […]
To discern the effect of LB100 on cell invasion, we tested the ability of SCLC cells to invade though a layer of endothelial cells (ECs). Toward this end, we measured the trans-endothelial monolayer resistance using an electrical substrate-impedance sensing system (Applied Biophysics, Troy, N.Y., USA), as previously described (24). […]

Chain of protein phosphatase 2A (PP2A) (P67775 whole entry): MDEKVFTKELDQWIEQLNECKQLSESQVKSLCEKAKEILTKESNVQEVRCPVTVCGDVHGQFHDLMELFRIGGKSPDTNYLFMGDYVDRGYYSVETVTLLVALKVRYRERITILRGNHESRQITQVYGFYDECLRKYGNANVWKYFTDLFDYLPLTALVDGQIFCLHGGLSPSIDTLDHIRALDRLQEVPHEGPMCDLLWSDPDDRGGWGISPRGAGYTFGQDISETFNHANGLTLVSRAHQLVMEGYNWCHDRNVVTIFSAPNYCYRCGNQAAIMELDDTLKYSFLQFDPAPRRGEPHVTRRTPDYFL

Row | Compound | inhibits PP2A more efficiently than protein phosphatase 1 (PP1) [1] | IC50 (H446 cells; Homo sapiens, NCI-H446, 72 h, read-out: Cytotoxicity IC50, H446) | reduction of total ATP production rate compared to untreated cells (H524 cells) | IC50 (H146 cells; Homo sapiens, NCI-H146, 72 h, read-out: Cytotoxicity IC50, H146) | % change of HUVEC barrier disruption (transmigration) (H69 cells) | IC50 (H446 cells; read-out: Cytotoxicity IC50, H446, 72 hours) | IC50 (H146 cells; read-out: Cytotoxicity IC50, H146, 72 hours)
1 | C[NH+]1CCN(C(=O)C2C(C(=O)O)[C@H]3CC[C@@H]2O3)CC1 (stereo in doubt) [LB-100, 3-[(4-Methylpiperazin-1-yl)carbonyl]-7-oxabicyclo[2.2.1]heptane-2-carboxylic acid] | about 80 fold | < 8 µM | 73.7% | ~20 µM | 12.3 ± 0.92% | – | –
2 | N.N.O=C([O-])C1(C(=O)[O-])CCC1.[Pt+2] [Carboplatin, reference compound] | – | – | 36.3% | – | 14.9 ± 1.24% | 26.2 µM | 8.3 µM
